Measured values as given in ChEMBL document CHEMBL5316285 (J Med Chem, 2023).
The source made the active and inactive calls. The calls are words filed in the database; no cut-off is given here.

Experiments:
A2780 [1] = test: Antiproliferative activity against human A2780 cells incubated for 72 hrs in carbon-dioxide atmosphere measured by cell counting kit-8 method; assay type: functional, cell-based; conditions: A2780, 72 h
[2] = molecular target: T1, von Hippel-Lindau disease tumor suppressor/Nicotinamide phosphoribosyltransferase (Homo sapiens, UniProt P43490+P40337); test: Protac activity at VHL/NAMPT in human A2780 cells assessed as degradation of NAMPT using NAM as substrate preincubated for 5 mins followed by substrate addition measured after 5 mins in presence of ATP by luminesence based microplate reader analysis; assay type: cell-based
Target sequence in this assay (P43490 whole entry): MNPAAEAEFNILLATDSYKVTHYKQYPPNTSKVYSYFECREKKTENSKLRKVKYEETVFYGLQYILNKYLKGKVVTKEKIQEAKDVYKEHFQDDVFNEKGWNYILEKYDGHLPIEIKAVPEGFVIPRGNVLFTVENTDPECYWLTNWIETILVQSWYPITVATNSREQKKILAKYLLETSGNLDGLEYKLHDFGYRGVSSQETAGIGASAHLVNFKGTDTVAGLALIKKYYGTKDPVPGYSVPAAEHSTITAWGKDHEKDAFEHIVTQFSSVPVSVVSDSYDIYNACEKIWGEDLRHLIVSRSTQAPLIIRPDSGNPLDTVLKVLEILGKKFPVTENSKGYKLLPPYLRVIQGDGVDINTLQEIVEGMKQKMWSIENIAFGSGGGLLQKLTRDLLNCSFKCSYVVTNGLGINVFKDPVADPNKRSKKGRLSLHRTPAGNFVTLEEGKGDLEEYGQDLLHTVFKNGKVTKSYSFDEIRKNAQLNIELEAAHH
Target sequence in this assay (P40337 whole entry): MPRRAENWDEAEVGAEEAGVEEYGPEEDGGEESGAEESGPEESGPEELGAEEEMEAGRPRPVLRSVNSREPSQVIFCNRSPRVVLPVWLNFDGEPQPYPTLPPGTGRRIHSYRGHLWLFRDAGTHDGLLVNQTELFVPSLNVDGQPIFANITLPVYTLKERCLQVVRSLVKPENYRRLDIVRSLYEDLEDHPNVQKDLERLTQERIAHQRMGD

[3] = molecular target: Nicotinamide phosphoribosyltransferase (Homo sapiens, UniProt P43490); test: Inhibition of NAMPT (unknown origin) using NAM as substrate preincubated for 5 mins followed by substrate addition measured after 15 mins in presence of ATP by fluorescence based microplate reader analysis
Nicotinamide phosphoribosyltransferase, sequence (P43490 whole entry): as the sequence (P43490 whole entry) above

[4] = molecular target: T1, von Hippel-Lindau disease tumor suppressor/Nicotinamide phosphoribosyltransferase; test: Protac activity at VHL/NAMPT in human A2780 cells assessed as induction of NAMPT degradation measured at 0.005 to 10 microM after 24 hrs by Western blotting analysis; assay type: cell-based; conditions: dose 0.005-10 µM
Target sequence in this assay (P40337 whole entry, looked up): as the sequence (P40337 whole entry) above
Target sequence in this assay (P43490 whole entry, looked up): as the sequence (P43490 whole entry) above

[5] = molecular target: T1, von Hippel-Lindau disease tumor suppressor/Nicotinamide phosphoribosyltransferase; test: Protac activity at VHL/NAMPT in human A2780 cells assessed as reduction of NAMPT protein level at 10 nM measured after 24 hrs by Western blotting analysis; assay type: cell-based
Target sequence in this assay (P40337 whole entry, looked up): as the sequence (P40337 whole entry) above
Target sequence in this assay (P43490 whole entry, looked up): as the sequence (P43490 whole entry) above

[6] = molecular target: T1, von Hippel-Lindau disease tumor suppressor/Nicotinamide phosphoribosyltransferase; test: Protac activity at VHL/NAMPT in human A2780 cells assessed as reduction of NAMPT protein level at 0.1 to 100 nM measured after 24 hrs by Western blotting analysis; assay type: cell-based; conditions: dose 0.1-100 nM
Target sequence in this assay (P40337 whole entry, looked up): as the sequence (P40337 whole entry) above
Target sequence in this assay (P43490 whole entry, looked up): as the sequence (P43490 whole entry) above

[7] = molecular target: T1, von Hippel-Lindau disease tumor suppressor/Nicotinamide phosphoribosyltransferase; test: Protac activity at VHL/NAMPT in human A2780 cells assessed as induction of NAMPT degradation measured at 0.2 to 500 nM after 24 hrs by Western blotting analysis; assay type: cell-based; conditions: dose 0.2-500 nM
Target sequence in this assay (P40337 whole entry, looked up): as the sequence (P40337 whole entry) above
Target sequence in this assay (P43490 whole entry, looked up): as the sequence (P43490 whole entry) above

[8] = molecular target: T1, von Hippel-Lindau disease tumor suppressor/Nicotinamide phosphoribosyltransferase; test: Protac activity at VHL/NAMPT in human A2780 cells assessed as induction of NAMPT degradation measured at 500 to 5000 nM after 24 hrs by Western blotting analysis; assay type: cell-based; conditions: dose 500-5000 nM
Target sequence in this assay (P40337 whole entry, looked up): as the sequence (P40337 whole entry) above
Target sequence in this assay (P43490 whole entry, looked up): as the sequence (P43490 whole entry) above

[9] = molecular target: T1, von Hippel-Lindau disease tumor suppressor/Nicotinamide phosphoribosyltransferase; test: Protac activity at VHL/NAMPT in human A2780 cells assessed as induction of NAMPT degradation measured at 5 to 50 nM after 24 hrs by Western blotting analysis; assay type: cell-based; conditions: dose 5-50 nM
Target sequence in this assay (P40337 whole entry, looked up): as the sequence (P40337 whole entry) above
Target sequence in this assay (P43490 whole entry, looked up): as the sequence (P43490 whole entry) above

CT26 = test: Antiproliferative activity against mouse CT26 cells; assay type: functional, cell-based
A2780 [10] = test: Antitumor activity against human A2780 cells xenografted in nude mouse assessed as tumor growth inhibition at 2 uM/Kg, IV once every 3 days upto 21 days relative to control; assay type: functional; conditions: time 21 day, at 2 µmol/kg
[11] = Retinal toxicity in nude mouse xenografted with human A2780 cells at 2 uM/Kg, IV once every 3 days upto 21 days by microscopic analysis; conditions: 504 h, time 21 day
[12] = Toxicity in nude mouse xenografted with human A2780 cells assessed as pathological damage in lung at 2 uM/Kg, IV once every 3 days upto 21 days by hematoxylin and eosin staining analysis; assay type: tissue-based; conditions: 504 h, time 21 day
[13] = Toxicity in nude mouse xenografted with human A2780 cells assessed as pathological damage in kidney at 2 uM/Kg, IV once every 3 days upto 21 days by hematoxylin and eosin staining analysis; assay type: tissue-based; conditions: 504 h, time 21 day
[14] = Toxicity in nude mouse xenografted with human A2780 cells assessed as loss in body weight at 2 uM/Kg, IV once every 3 days upto 21 days; conditions: 504 h, time 21 day

| SMILES | IC50 (A2780 [1]) | DC50 [2] | IC50 [3] | also measured |
| --- | --- | --- | --- | --- |
| Cc1ncsc1-c1ccc([C@H](C)NC(=O)[C@@H]2C[C@@H](O)CN2C(=O)[C@@H](NC(=O)CCCCCCN2CCN(S(=O)(=O)c3ccc(NC(=O)NCc4cccnc4)cc3)CC2)C(C)(C)C)cc1 | 0.096 µM | > 10 µM | 0.12 µM | – |
| Cc1ncsc1-c1ccc([C@H](C)NC(=O)[C@@H]2C[C@@H](O)CN2C(=O)[C@@H](NC(=O)CCCCCCCCCN2CCN(S(=O)(=O)c3ccc(NC(=O)NCc4cccnc4)cc3)CC2)C(C)(C)C)cc1 | 0.01 µM | 0.0015 µM | 0.19 µM | Activity [4]: Dose-Dependent Effect; Activity [5]: Active |
| Cc1ncsc1-c1ccc([C@H](C)NC(=O)[C@@H]2C[C@@H](O)CN2C(=O)[C@@H](NC(=O)COCCN2CCN(S(=O)(=O)c3ccc(NC(=O)NCc4cccnc4)cc3)CC2)C(C)(C)C)cc1 | 5.51 µM | > 0.1 µM | 0.16 µM | Activity [6]: inactive |
| Cc1ncsc1-c1ccc([C@H](C)NC(=O)[C@@H]2C[C@@H](O)CN2C(=O)[C@@H](NC(=O)COCCOCCOCCN2CCN(S(=O)(=O)c3ccc(NC(=O)NCc4cccnc4)cc3)CC2)C(C)(C)C)cc1 | 0.056 µM | 0.093 µM | 0.13 µM | Activity [7]: Dose-Dependent Effect |
| Cc1ncsc1-c1ccc([C@H](C)NC(=O)[C@@H]2C[C@@H](O)CN2C(=O)[C@@H](NC(=O)CCCCCCCCCCCN2CCN(S(=O)(=O)c3ccc(NC(=O)NCc4cccnc4)cc3)CC2)C(C)(C)C)cc1 | 0.03 µM | 0.0024 µM | 0.31 µM | Activity [4]: Dose-Dependent Effect; Activity [5]: Active |
| Cc1ncsc1-c1ccc([C@H](C)NC(=O)[C@@H]2C[C@@H](O)CN2C(=O)[C@@H](NC(=O)COCCOCCn2cc(CCN3CCN(S(=O)(=O)c4ccc(NC(=O)NCc5cccnc5)cc4)CC3)nn2)C(C)(C)C)cc1 | 0.737 µM | 0.05 µM | 0.19 µM | Activity [8]: Active; Activity [9]: inactive |
| Cc1ncsc1-c1ccc([C@H](C)NC(=O)[C@@H]2C[C@@H](O)CN2C(=O)[C@@H](NC(=O)CCCCCCCN2CCN(S(=O)(=O)c3ccc(NC(=O)NCc4cccnc4)cc3)CC2)C(C)(C)C)cc1 | 0.0059 µM | > 0.1 µM | 0.1 µM | – |
| Cc1ncsc1-c1ccc([C@H](C)NC(=O)[C@@H]2C[C@@H](O)CN2C(=O)[C@@H](NC(=O)COCCOCCN2CCN(S(=O)(=O)c3ccc(NC(=O)NCc4cccnc4)cc3)CC2)C(C)(C)C)cc1 | 1.23 µM | > 0.1 µM | 0.15 µM | Activity [6]: inactive |
| Cc1ncsc1-c1ccc([C@H](C)NC(=O)[C@@H]2C[C@@H](O)CN2C(=O)[C@@H](NC(=O)CCCCCCCCCCN2CCN(S(=O)(=O)c3ccc(NC(=O)NCc4cccnc4)cc3)CC2)C(C)(C)C)cc1 | 0.03 µM | < 0.0046 µM | 0.23 µM | Activity [4]: Dose-Dependent Effect; Activity [5]: Active |
| Cc1ncsc1-c1ccc([C@H](C)NC(=O)[C@H]2C[C@H](O)CN2C(=O)[C@@H](NC(=O)CCCCCCCCN2CCN(S(=O)(=O)c3ccc(NC(=O)NCc4cccnc4)cc3)CC2)C(C)(C)C)cc1 | 0.707 µM | > 10 µM | 0.11 µM | – |
| Cc1ncsc1-c1ccc([C@H](C)NC(=O)[C@@H]2C[C@@H](O)CN2C(=O)[C@@H](NC(=O)COCCn2cc(CCN3CCN(S(=O)(=O)c4ccc(NC(=O)NCc5cccnc5)cc4)CC3)nn2)C(C)(C)C)cc1 | 0.433 µM | 0.05 µM | 0.12 µM | Activity [8]: Active; Activity [9]: inactive |
| O=S(=O)(c1ccc(NC(=S)NCc2cccnc2)cc1)N1CCCCC1 | 0.13 µM | – | – | IC50 (CT26): 4.6 µM; TGI (A2780 [10]): 49.8%; Activity [11]: Non-Toxic |
| Cc1ncsc1-c1ccc([C@H](C)NC(=O)[C@@H]2C[C@@H](O)CN2C(=O)[C@@H](NC(=O)COCCOCCOCCOCCOCCN2CCN(S(=O)(=O)c3ccc(NC(=O)NCc4cccnc4)cc3)CC2)C(C)(C)C)cc1 | 0.133 µM | 0.022 µM | 0.19 µM | Activity [7]: Dose-Dependent Effect |
| CC(=O)N[C@H](C(=O)N1C[C@H](O)C[C@H]1C(=O)N[C@@H](C)c1ccc(-c2scnc2C)cc1)C(C)(C)C | > 100 µM | – | > 2 µM | – |
| Cc1ncsc1-c1ccc([C@H](C)NC(=O)[C@@H]2C[C@@H](O)CN2C(=O)[C@@H](NC(=O)COCCOCCOCCOCCn2cc(CCN3CCN(S(=O)(=O)c4ccc(NC(=O)NCc5cccnc5)cc4)CC3)nn2)C(C)(C)C)cc1 | 0.401 µM | 0.05 µM | 0.083 µM | Activity [8]: Active; Activity [9]: inactive |
| Cc1ncsc1-c1ccc([C@H](C)NC(=O)[C@@H]2C[C@@H](O)CN2C(=O)[C@@H](NC(=O)COCCOCCOCCOCCOCCn2cc(CCN3CCN(S(=O)(=O)c4ccc(NC(=O)NCc5cccnc5)cc4)CC3)nn2)C(C)(C)C)cc1 | 0.477 µM | 0.05 µM | 0.97 µM | Activity [8]: Active; Activity [9]: inactive |
| Cc1ncsc1-c1ccc([C@H](C)NC(=O)[C@@H]2C[C@@H](O)CN2C(=O)[C@@H](NC(=O)COCCOCCOCCOCCN2CCN(S(=O)(=O)c3ccc(NC(=O)NCc4cccnc4)cc3)CC2)C(C)(C)C)cc1 | 0.173 µM | 0.019 µM | 0.13 µM | Activity [7]: Dose-Dependent Effect |
| Cc1ncsc1-c1ccc([C@H](C)NC(=O)[C@@H]2C[C@@H](O)CN2C(=O)[C@@H](NC(=O)COCCOCCOCCn2cc(CCN3CCN(S(=O)(=O)c4ccc(NC(=O)NCc5cccnc5)cc4)CC3)nn2)C(C)(C)C)cc1 | 0.487 µM | 0.05 µM | 0.094 µM | Activity [8]: Active; Activity [9]: inactive |
| O=C(/C=C/c1cccnc1)NCCCCC1CCN(C(=O)c2ccccc2)CC1 [DAPORINAD] | 0.00028 µM | – | – | Activity [12]: Toxic; TGI (A2780 [10]): 62.9%; Activity [13]: Toxic; Activity [11]: Non-Toxic; Activity [14]: Toxic |
